Results taken from patent US20250295639A1, “METHODS FOR TREATING HEART DISEASES” (Cytokinetics, Incorporated, priority 2024, published 2025).

Tested on: patients with symptomatic oHCM
Assay: SEQUOIA-HCM secondary analysis: global remodelling response across five domains
Assay type: in vivo, human
Experimental: SEQUOIA-HCM recruited patients with symptomatic oHCM (New York Heart Association [NYHA]≥class 2, baseline pVO2 of ≤90% of predicted, respiratory exchange ratio [RER] of ≥1.05). Patients were randomized 1:1 to aficamten (5-20 mg daily) or placebo, and doses were adjusted during the first 6 weeks to achieve relief from obstruction (LVOT-G<30 mmHg) while maintaining left ventricular ejection fraction (LVEF) ≥50%, for 24 weeks. In this secondary analysis, remodelling response was assessed across five domains including: 1) left atrial volume index (LAVI) graded as normal (16-34 mL/m^2), mild (35-41 mL/m^2), moderate (42-48 mL/m^2), severe enlargement (>48 mL/m^2); 2) presence of left ventricular hypertrophy (LVH) with strain pattern on electrocardiogram (EKG) assessed by core lab, 3) Hyperdynamic (≥72) LVEF by core lab; 4)N-terminal brain natriuretic peptide (NT-proBNP) improvement of ≥50%, and; and 5) decrease of maximal wall thickness (MWT) ≥1.5 mm.

CCc1nc(-c2ccc3c(c2)CC[C@H]3NC(=O)c2cnn(C)c2)no1 [aficamten, (R)—N-(5-(5-ethyl-1,2,4-oxadiazol-3-yl)-2,3-dihydro-1H-inden-1-yl)-1-methyl-1H-pyrazole-4-carboxamide]
patients with beneficial remodelling in at least one of five domains (142 aficamten treated patients): 84%
patients with decrease by ≥50% in NT-proBNP (aficamten): 81.7%
patients with improvement in MWT (decrease ≥1.5 mm) (aficamten): 47.9%
patients with resolution of hyperdynamic LVEF (aficamten): 35.2%
reduction in prevalence of LVH with strain pattern on EKG, patients (aficamten): 19.0%
patients with improvement by one category in LAVI (among patients with abnormal LAVI (>34 mL/m^2) at baseline, 44/94): 46.8%
number needed to treat to achieve beneficial remodelling (vs placebo): 2.2
